In US20040006103A1, “Use of chloroquine, hydroxychloroquine and 4 amino-quinolinic derivatives to obtain a drug for the anti retroviral therapy, active towards HIV sensitive strains and towards HIV strains which are resistant to both nucleosidic and non-nucleosidic reverse transcriptase inhibitors and to proteases …” (VALPHARMA S.A., priority 2002, published 2004):
Where two headings read alike, the source gives them in different places.

Tests used:
[1] = tested on: HIV clinical isolated, characterised by mutations in the RT gene inducing geno-phenotypic resistance to ddI; experiment: p24 production susceptibility test (ACTG protocol), Table 2; format: cell-based, HIV-1; settings: for EC50: Human immunodeficiency virus 1, PBMC, read-out: E.C.50 HCQ; for S.I. HCQ / Fen HCQ (fold): PBMC; for S.I. HCQ: I.C.50/E.C.50; for Fen HCQ (fold): ratio to HIV-IIIB
Description: (§1) For the phenotype of the nucleosidic, non-nucleosidic and proteases inhibitors was utilised a method which consider the use of human PBMC and the protocol standardised by the AIDS Clinical Trials Group, after verifying the genotype by sequence analysis.
(§2) In order to assay in vitro the susceptibility to chloroquine and hydroxychloroquine of the viral strains, it was used the protocol of the ACTG which is characterised by the measure, of the production of antigen p24 in strongly infected cells.
(§3) The susceptibility of the viral strains to chemotherapics was determined in cell cultures, prepared in 96 wells microplates, using, for the infection, 0.1 MOI.
(§4) The supernatant of the infected cultures (either in absence or in presence of different concentrations of chemotherapic) were tested for the production of p24 after 7 days, using an ELISA test which is commercially available.
(§5) The concentrations of chloroquine and hydroxychloroquine tested ranged from 0.5 to 15 uM. At the same time non-infected cells were incubated with concentrations of chloroquine and hydroxychloroquine ranging from 0 to 50 uM to evaluate the toxicity of the compound.
(§6) After 4 day from the infection, half the cellular medium was replaced with a medium containing the corresponding dilution of chloroquine and hydroxychloroquine. The percentage of inhibition of the HIV replication, induced by chloroquine and hydroxychloroquine, was determined, after 7 day from the infection, comparing the levels of p24 of this cultures and that of the control, infected and not treated with chloroquine and hydroxychloroquine.
(§7) Therefore, the E.C.50 of chloroquine and hydroxychloroquine expresses the concentration of chemotherapic that inhibits the 50% of production of p24 and the values were calculated using linear and non linear regression analysis (the significativity for the non linear regression was R^2>0.95).
(§8) In the same experimental conditions and in the same day, but with similar concentrations of chloroquine and hydroxychloroquine, it was evaluated the vitality of the infect cell cultures, and this was expressed as I.C.50.
(§9) I.C.50 (Inhibitory Concentration) indicates the concentration of the chemotherapic agent inhibiting the vitality of the cell cultures at a rate of 50%, when there is not infection.

[2] = tested on: HIV-1 clinical isolated, characterised by mutations in the RT gene inducing geno-phenotypic resistance to 3TC; experiment: p24 production susceptibility test (ACTG protocol), Table 3; format: cell-based; settings: for EC50: Human immunodeficiency virus 1, PBMC, read-out: E.C.50 HCQ; for S.I. HCQ / Fen. HCQ (fold): PBMC; for S.I. HCQ: I.C.50/E.C.50; for Fen. HCQ (fold): ratio to HIV-IIIB
Description: as §1, §2, §3, §4
At the same time non-infected cells were incubated with concentrations of chloroquine and hydroxychloroquine ranging from 0 to 50 uM to evaluate the toxicity of the compound.
as §6, §7, §8, §9

[3] = tested on: HIV-1 clinical isolated, characterised by mutations in the RT gene inducing geno-phenotypic resistance to d4T; experiment: p24 production susceptibility test (ACTG protocol), Table 4; format: cell-based; settings: for EC50: Human immunodeficiency virus 1, PBMC, read-out: E.C.50 HCQ; for S.I. HCQ / Fen. HCQ (fold): PBMC; for S.I. HCQ: I.C.50/E.C.50; for Fen. HCQ (fold): ratio to HIV-IIIB
Description: as §1, §2, §3, §4, §5, §6, §7, §8, §9

[4] = tested on: HIV-1 clinical isolated, characterised by mutations in the protease gene inducing geno-phenotypic resistance to SQV; experiment: p24 production susceptibility test (ACTG protocol), Table 8; format: cell-based; settings: for EC50: Human immunodeficiency virus 1, PBMC, read-out: E.C.50 HCQ; for S.I. HCQ / Fen. HCQ (fold): PBMC; for S.I. HCQ: I.C.50/E.C.50; for Fen. HCQ (fold): ratio to HIV-IIIB
Description: as §1, §2, §3, §4, §5, §6, §7, §8, §9

[5] = tested on: HIV-1 clinical isolated, characterised by mutations in the protease gene inducing geno-phenotypic resistance to IDV; experiment: p24 production susceptibility test (ACTG protocol), Table 9; format: cell-based; settings: for EC50: Human immunodeficiency virus 1, PBMC; for S.I. HCQ: I.C.50/E.C.50; for Fen. HCQ (fold): ratio to HIV-IIIB
Description: as §1, §2, §3, §4, §5, §6, §7, §8, §9

[6] = tested on: HIV-1 strains cultivated in PBMC and isolated from patient naive to the treatment; experiment: p24 production susceptibility test (ACTG protocol), Table 11; format: cell-based; settings: for EC50: Human immunodeficiency virus 1, PBMC; for S.I. HCQ: I.C.50/E.C.50
Method: as §2, §3, §4, §5, §6, §7, §8, §9

[7] = Gen M4IL M184V L210W R211KL 214F T215Y
[8] = Gen. M4IL E44D D67N M184V R211K T215Y
[9] = Gen. M41L D67N V118I M184V T215Y
[10] = Gen. K65R F77L Y115F Q151M M184V
[11] = PBMC, Gen. K20R E35D M36I I54V V82T

`CCN(CCO)CCCC(C)Nc1ccnc2cc(Cl)ccc12` (centres unmarked) [HCQ, hydroxychloroquine] was tested, and the EC50 ([1]; Gen D67N K70R M184V T215Y) was 2.5 µM, the EC50 ([1]; Gen D67N K70R T215F K70R) was 2.5 µM and the EC50 ([1]; Gen K70R T215F K219Q) was 2 µM. It also gave an EC50 [1, 7] of 2.5 µM, an EC50 ([1]; Gen M41I T215F) of 2.5 µM and an EC50 ([1]; Gen M41L D67N K70R M184V T215Y) of 2.5 µM. For the same molecule, the EC50 ([1]; Gen M41L D67N K70R T215Y) was 2.8 µM, the “S.I. HCQ” value ([1]; Gen D67N K70R M184V T215Y) was 4.5 and the “Fen HCQ (fold)” value ([1]; Gen D67N K70R M184V T215Y) was 1.3X fold. The “S.I. HCQ” value ([1]; Gen D67N K70R T215F K70R) was 3.4, the “Fen HCQ (fold)” value ([1]; Gen D67N K70R T215F K70R) was 1.1X fold and the “S.I. HCQ” value ([1]; Gen K70R T215F K219Q) was 5. The “Fen HCQ (fold)” value ([1]; Gen K70R T215F K219Q) was 0.8X fold, the “S.I. HCQ” value [1, 7] was 4 and the “Fen HCQ (fold)” value [1, 7] was 1.3X fold. The “S.I. HCQ” value ([1]; Gen M41I T215F) was 4.5, the “Fen HCQ (fold)” value ([1]; Gen M41I T215F) was 1.3X fold and the “S.I. HCQ” value ([1]; Gen M41L D67N K70R M184V T215Y) was 3.6. The “Fen HCQ (fold)” value ([1]; Gen M41L D67N K70R M184V T215Y) was 1.3X fold, the “S.I. HCQ” value ([1]; Gen M41L D67N K70R T215Y) was 3.4 and the “Fen HCQ (fold)” value ([1]; Gen M41L D67N K70R T215Y) was 1.1X fold. For the same molecule, the EC50 [2, 8] was 2.5 µM, the EC50 [2, 9] was 3.2 µM and the EC50 ([2]; Gen. M184I) was 2.8 µM. For the same molecule, the EC50 ([2]; Gen. M184V) was 3 µM, the “S.I. HCQ” value [2, 8] was 3.5 and the “Fen. HCQ (fold)” value [2, 8] was 1.5X fold. For the same molecule, the “S.I. HCQ” value [2, 9] was 3.3, the “Fen. HCQ (fold)” value [2, 9] was 1.7X fold and the “S.I. HCQ” value ([2]; Gen. M184I) was 3.4. The “Fen. HCQ (fold)” value ([2]; Gen. M184I) was 1.2X fold, the “S.I. HCQ” value ([2]; Gen. M184V) was 3.2 and the “Fen. HCQ (fold)” value ([2]; Gen. M184V) was 1.3X fold. The EC50 [3, 10] was 3.5 µM, the EC50 ([3]; Gen. K65R F116Y Q151M) was 3 µM and the EC50 ([3]; Gen. M41I T69SSS T215Y) was 2.5 µM. The EC50 ([3]; Gen. T69SSS T215Y) was 3 µM, the EC50 ([3]; Gen. V75I F77L F116Y Q151M) was 3 µM and the “S.I. HCQ” value [3, 10] was 3.3. The “Fen. HCQ (fold)” value [3, 10] was 2.3X fold, the “S.I. HCQ” value ([3]; Gen. K65R F116Y Q151M) was 3.3 and the “Fen. HCQ (fold)” value ([3]; Gen. K65R F116Y Q151M) was 2.2X fold. The “S.I. HCQ” value ([3]; Gen. M41I T69SSS T215Y) was 3.6, the “Fen. HCQ (fold)” value ([3]; Gen. M41I T69SSS T215Y) was 1.6X fold and the “S.I. HCQ” value ([3]; Gen. T69SSS T215Y) was 3.3. The “Fen. HCQ (fold)” value ([3]; Gen. T69SSS T215Y) was 2X fold, the “S.I. HCQ” value ([3]; Gen. V75I F77L F116Y Q151M) was 4 and the “Fen. HCQ (fold)” value ([3]; Gen. V75I F77L F116Y Q151M) was 2X fold. It also gave an EC50 ([4]; Gen. G48V I84V A74V L90M) of 1.5 µM, an EC50 ([4]; Gen. G48V V82A) of 3 µM and an EC50 ([4]; Gen. I84V L90M) of 2.8 µM. The EC50 ([4]; Gen. M46I G48V L63P L90M) was 1.8 µM, the EC50 ([4]; Gen. V82A L90M) was 1.8 µM and the “S.I. HCQ” value ([4]; Gen. G48V I84V A74V L90M) was 4. The “Fen. HCQ (fold)” value ([4]; Gen. G48V I84V A74V L90M) was 0.8X fold, the “S.I. HCQ” value ([4]; Gen. G48V V82A) was 3 and the “Fen. HCQ (fold)” value ([4]; Gen. G48V V82A) was 1.6X fold. The “S.I. HCQ” value ([4]; Gen. I84V L90M) was 3, the “Fen. HCQ (fold)” value ([4]; Gen. I84V L90M) was 1.5X fold and the “S.I. HCQ” value ([4]; Gen. M46I G48V L63P L90M) was 6. The “Fen. HCQ (fold)” value ([4]; Gen. M46I G48V L63P L90M) was 1X fold, the “S.I. HCQ” value ([4]; Gen. V82A L90M) was 5.5 and the “Fen. HCQ (fold)” value ([4]; Gen. V82A L90M) was 1X fold. It also gave an EC50 ([5]; PBMC, Gen. G48V V82A, read-out: E.C.50 HCQ) of 2.8 µM, an EC50 ([5]; PBMC, Gen. I84V L90M, read-out: E.C.50 HCQ) of 1.8 µM and an EC50 ([5]; PBMC, Gen. K20R E35D M36I I54V V82T, read-out: E.C.50 HCQ) of 2.2 µM. For the same molecule, the EC50 ([5]; PBMC, Gen. V82F L90M, read-out: E.C.50 HCQ) was 3.3 µM, the EC50 ([5]; read-out: E.C.50 HCQ (uM), PBMC, Gen. L10R M46I L63P V82T) was 1.8 µM and the “S.I. HCQ” value ([5]; PBMC, Gen. G48V V82A) was 3. The “Fen. HCQ (fold)” value ([5]; PBMC, Gen. G48V V82A) was 1.5X fold, the “S.I. HCQ” value ([5]; PBMC, Gen. I84V L90M) was 5.5 and the “Fen. HCQ (fold)” value ([5]; PBMC, Gen. I84V L90M) was 1X fold. For the same molecule, the “S.I. HCQ” value [5, 11] was 4.5, the “Fen. HCQ (fold)” value [5, 11] was 1.2X fold and the “S.I. HCQ” value ([5]; PBMC, Gen. L10R M46I L63P V82T) was 5. For the same molecule, the “Fen. HCQ (fold)” value ([5]; PBMC, Gen. L10R M46I L63P V82T) was 0.8X fold, the “S.I. HCQ” value ([5]; PBMC, Gen. V82F L90M) was 2.5 and the “Fen. HCQ (fold)” value ([5]; PBMC, Gen. V82F L90M) was 1.7X fold. For the same molecule, the EC50 ([6]; HIV-1 virus sensitive to the anti-retroviral treatment, range over each experiment, read-out: E.C.50) was 1.5 to 3.5 µM, the EC50 ([6]; PBMC, Virus N°1, read-out: E.C.50 HCQ) was 2.2 µM and the EC50 ([6]; PBMC, Virus N°2, read-out: E.C.50 HCQ) was 1.8 µM. For the same molecule, the EC50 ([6]; PBMC, Virus N°3, read-out: E.C.50 HCQ) was 1.5 µM, the EC50 ([6]; PBMC, Virus N°4, read-out: E.C.50 HCQ) was 2.2 µM and the EC50 ([6]; PBMC, Virus N°5, read-out: E.C.50 HCQ) was 1.8 µM. For the same molecule, the “S.I. HCQ” value ([6]; PBMC, Virus N°1) was 4.5, the “S.I. HCQ” value ([6]; PBMC, Virus N°2) was 5 and the “S.I. HCQ” value ([6]; PBMC, Virus N°3) was 6. The “S.I. HCQ” value ([6]; PBMC, Virus N°4) was 4 and the “S.I. HCQ” value ([6]; PBMC, Virus N°5) was 4.5.
